Test system: mPTPB transfected Raw264.7 cells
Test: Blocking mPTPB-mediated signaling, Western blotting
Type: cell-based, mouse
Settings: dose-dependent

## O=C(O)C(=O)Nc1ccc(C#Cc2ccc(C(F)(F)F)cc2Cl)cc1 [Compound 4t, 2-((4-((2-chloro-4-(trifluoromethyl)phenyl)ethynyl)phenyl)amino)-2-oxoacetic Acid]
  Akt activity: reduced
  IFN-γ induced phosphorylation of ERK1/2 and p38: increased

Reference: patent US11192850B2, “N-aryl oxamic acids” (Purdue Research Foundation, priority 2020, dated 2021)
